Data published in patent publication US7060716B2, “Tryptase inhibitors” (Altana Pharma AG, priority 2001, dated 2006).
Counter-ions that a name gives are not always drawn.

Molecular target: T1, human tryptase (Homo sapiens, UniProt P20231)
T1 construct: from tissue
Test: Inhibition of human tryptase (apparent dissociation constant Kiapp, chromogenic substrate tos-Gly-Pro-Arg-pNA)
Type: biochemical
Conditions: apparent dissociation constant in the presence of substrate; heparin 0.1–50 μg/ml; equilibrium conditions; read-out: Klapp
Description: The documented pathophysiological effects of mast cell tryptase are caused directly by the enzymatic activity of the protease. Accordingly, they are reduced or blocked by inhibitors which inhibit the enzymatic activity of the tryptase. A suitable measure for the affinity of a reversible inhibitor to the target protease is the equilibrium dissociation constant Ki of the enzyme-inhibitor complex. This Ki value can be determined via the effect of the inhibitor on the tryptase-induced cleavage of a chromogenic peptide-p-nitroanilide substrate or a fluorogenic peptide-aminomethylcoumarin substrate.
The dissociation constants for the tryptase-inhibitor complexes are determined under equilibrium conditions in accordance with the general proposals of Bieth (Bieth J G, Pathophysiological Interpretation of kinetic constants of protease inhibitors, Bull. Europ. Physiopath. Resp. 16:183–195, 1980) and the methods of Sommerhoff et al. (Sommerhoff C P et al., A Kazal-type inhibitor of human mast cell tryptase: Isolation from the medical leech Hirudo medicinalis, characterization, and sequence analysis, Biol. Chem. Hoppe-Seyler 375: 685–694, 1994).
Human tryptase is isolated from lung tissue or prepared recombinantly; the specific activity of the protease, determined by titration, is usually greater than 85% of the theoretical value. […]

T1 sequence (P20231 31-275): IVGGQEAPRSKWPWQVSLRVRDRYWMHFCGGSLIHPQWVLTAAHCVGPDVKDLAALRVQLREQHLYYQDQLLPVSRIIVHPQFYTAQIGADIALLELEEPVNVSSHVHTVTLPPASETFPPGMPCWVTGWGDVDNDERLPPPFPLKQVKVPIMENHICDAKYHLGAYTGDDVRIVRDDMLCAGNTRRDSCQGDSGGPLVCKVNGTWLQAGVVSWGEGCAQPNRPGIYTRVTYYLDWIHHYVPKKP

Compound | Ki [nM]
NCc1cccc(CNC(=O)OCC#Cc2cccc(C#CCOC(=O)NCc3cccc(CN)c3)n2)c1 [Compound 1, 2,6-Bis-[3-(3-aminomethylbenzylaminocarbonyloxy)prop-1-ynyl]pyridine trihydrochloride] | 2.6
NCc1ccc(CNC(=O)OCC#Cc2cccc(C#CCOC(=O)NCc3ccc(CN)cc3)n2)cc1 [Compound 2, 2,6-Bis-[3-(4-aminomethylbenzylaminocarbonyloxy)prop-1-ynyl]pyridine trihydrochloride] | 6
